Consider eleven compounds from PMC12521615, “Accurate affinity models for SH2 domains from peptide binding assays and free‐energy regression” (Protein Science : A Publication of the Protein Society, 2025).

In assay [1] the target is T1, Lyn SH2 domain (Homo sapiens, UniProt P07948).
T1 construct: The human SH2 domains from Fyn (142–248), Lyn (121–228); His6-SUMO (N, cleaved yes); host or cells: Escherichia coli C43(DE3) with BirA helper plasmid
As to the kind of experiment: competitive fluorescence polarization, Lyn SH2 domain. The conditions noted are these: Table S3, unpaired validation; competition fluorescence polarization; probe FITC-Ahx-GDG-pY-EEISPLLL-NH2 30 nM; [SH2] 106 nM; mean. Type of assay: binding. The text has this:
First, we generated bacterial display datasets and affinity models for three additional SH2 domains from Src‐family kinases Lyn, Blk, and Yes (Figure 5a). For validation of the affinity model for Lyn, we selected a subset of phosphopeptides that were likely to fall within the dynamic range of the competitive fluorescence polarization assay (see “Methods” for details). […] We measured binding affinities to the corresponding phosphopeptides by fluorescence polarization.
The human SH2 domains from Fyn (142–248), Lyn (121–228), Blk (116–222), and Yes (150–257) kinases were PCR‐amplified from plasmids encoding the full‐length proteins and cloned using the NEBuilder® HiFi DNA Assembly Master Mix (NEB) in a pET plasmid backbone that was PCR‐amplified with the primers pETXbaI_for and pETXhoI_rev (these and all other primers are defined in Table S7) from the pET‐His6‐SUMO‐Grb2(SH2), as reported before (Li et al., [2023]), thus adding an N‐terminal His6‐SUMO tag and a C‐terminal AviTag® for biotinylation. The SH2 plasmids are available via Addgene: pET28‐His6‐SUMO‐Fyn‐SH2‐AviTag (214202), pET28‐His6‐SUMO‐Blk‐SH2‐AviTag (214204), pET28‐His6‐SUMO‐Lyn‐SH2‐AviTag (214207), pET28‐His6‐SUMO‐Yes‐SH2‐AviTag (214208), and pET28‐His6‐SUMO‐cSrc‐SH2‐AviTag (214230). For expression and parallel biotinylating of the SH2 domain product, Escherichia coli C43(DE3) cells carrying a BirA encoding helper plasmid were transformed with the respective SH2 domain expression construct and plated to grow overnight at 37°C on a streptomycin and kanamycin (100 μg/mL both) LB‐agar plate. The colonies were collected in 10 mL of TB medium and used to inoculate 1 L of TB medium and grown at 37°C and 215 rpm. Upon reaching an OD600 of 0.5, the expression of the SH2 domains was induced by adding IPTG up to 0.5 mM and biotin up to 250 μM, and the expressing culture was incubated at 18°C for 16–18 h. After removing the medium through centrifugation, the cell pellets were snap‐frozen in liquid N2 and stored at −80°C until purification. To purify the biotinylated SH2 domains, the cell pellets were resuspended in lysis buffer (50 mM Tris, pH 7.5, 300 mM NaCl, 20 mM imidazole, 10% glycerol), supplementing them with 2 mM β‐mercaptoethanol and 1× protease inhibitor cocktail before lysis by sonication (Fisherbrand Sonic Dismembrator). The soluble fraction separated after centrifugation at 33,000 g was run on a HisTrap HP column (Cytiva), then washed with 10 CV of the lysis buffer followed by 10 CV of wash buffer (50 mM Tris, pH 7.5, 50 mM NaCl, 10 mM imidazole, 10% glycerol). Next, the protein was eluted with elution buffer (50 mM Tris, pH 7.5, 50 mM NaCl, 250 mM imidazole, 10% glycerol) directly onto a 5 mL HiTrap Q HP anion exchange column (Cytiva). The biotinylated SH2 domain was then eluted from the anion exchange column with an NaCl gradient (50 mM Tris, pH 7.5, 0.05–1 M NaCl, 1 mM TCEP‐HCl), and the His6‐SUMO tag was cleaved using 0.05 mg/mL Ulp1 protease. The biotinylated SH2 domain was then collected in a flowthrough after running the cleavage reaction over a HisTrap HP column. Finally, the biotinylated SH2 domain in the flowthrough was run on a HiLoad 16/600 Superdex 75 pg size exclusion column (Cytiva) in storage buffer (20 mM HEPES, pH 7.5, 150 mM NaCl, 10% glycerol).

The target in assay [2] is T2, c-Src SH2 domain (Homo sapiens, UniProt P12931).
T2 construct: the SH2 domain from c‐Src kinase; His6-SUMO (N, cleaved yes); host or cells: Escherichia coli C43(DE3) with BirA helper plasmid
T2 sequence (P12931 151-248 limits assumed): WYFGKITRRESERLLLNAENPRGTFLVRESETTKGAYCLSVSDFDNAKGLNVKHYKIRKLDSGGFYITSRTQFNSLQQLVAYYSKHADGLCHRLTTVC
As to the kind of experiment: competitive fluorescence polarization, c-Src SH2 domain. The class given is binding. Particulars: Table S3, unpaired validation; competition fluorescence polarization; probe FITC-Ahx-GDG-pY-EEISPLLL-NH2 30 nM; [SH2] 123-126 nM; mean. For orientation: Fluorescence polarisation rises when a labelled molecule tumbles more slowly, as on binding a larger partner.
Source text: Measured binding constants (K D) from competition mode fluorescence polarization experiments were obtained using the purified SH2 domains used for the selection and chosen sets of peptides with a phosphorylated tyrosine exactly as described previously (Li et al., [2023]). […] Before performing the competition mode fluorescence polarization measurement, the K D of the probes for the respective SH2 domains was first measured in a direct mode of fluorescence polarization. […] Using the validation data for the Fyn SH2 domain, the range of predicted relative binding affinities that corresponds to the range between 1 nM and 100 μM, which is the dynamic range of reliable measurement of absolute binding affinities using our competitive fluorescence polarization setup, was defined and used to further filter the set of candidate phosphopeptides. A subset that evenly covers the chosen range of predicted relative affinities was finally picked for the validation measurements of the Lyn SH2 domain.

Assay [3] has as its target Grb2 SH2 domain (Homo sapiens, UniProt P62993). In words: biochemical. The text has this:
Measured binding constants (K D) from competition mode fluorescence polarization experiments were obtained using the purified SH2 domains used for the selection and chosen sets of peptides with a phosphorylated tyrosine exactly as described previously (Li et al., [2023]). […] (c‐Src SH2 consensus) was used as the probe, and for the Grb2 SH2 domain, the fluorescently labeled peptide FITC‐Ahx‐FDDPS(pY)VNVQN (Ahx = 6‐aminohexanoic acid) from the Y177 phospho‐tyrosine site of BCR. Before performing the competition mode fluorescence polarization measurement, the K D of the probes for the respective SH2 domains was first measured in a direct mode of fluorescence polarization. […] For the set of peptides where single point mutations were compared, phosphopeptides reported in the PhosphoSitePlus database (Hornbeck et al., [2015]) and previously shown to bind to the c‐Src SH2 domain (Li et al., [2023]) were chosen alongside their respective single point mutants. To choose phosphopeptides for validation of the Lyn SH2 domain, we started from all verified phosphopeptides found in PhosphoSitePlus, filtered based on their co‐expression with the Lyn kinase using the STRING database. Using the validation data for the Fyn SH2 domain, the range of predicted relative binding affinities that corresponds to the range between 1 nM and 100 μM, which is the dynamic range of reliable measurement of absolute binding affinities using our competitive fluorescence polarization setup, was defined and used to further filter the set of candidate phosphopeptides. A subset that evenly covers the chosen range of predicted relative affinities was finally picked for the validation measurements of the Lyn SH2 domain. For the c‐Src, Yes, and Blk SH2 domains, a combination of the previously chosen peptides was used, after verifying that their predicted relative affinities for the given SH2 domain fell within the same measurable range. All peptides containing phosphorylated tyrosine, both fluorescently labeled and non‐labeled, were produced by SynPeptide (China).

The Kd is the constant that tells how readily two partners part at equilibrium.

Non-standard residues stand in square brackets, D forms with d. Residues, ends and D or L forms follow the SMILES beside them. pY = N[C@@H](Cc1ccc(OP(=O)(O)O)cc1)C(=O)O

T1 sequence (P07948 121-228): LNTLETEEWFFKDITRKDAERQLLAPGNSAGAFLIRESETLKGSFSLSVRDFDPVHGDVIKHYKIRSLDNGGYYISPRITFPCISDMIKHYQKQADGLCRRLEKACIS
Grb2 SH2 domain, sequence (P62993 60-152 limits assumed): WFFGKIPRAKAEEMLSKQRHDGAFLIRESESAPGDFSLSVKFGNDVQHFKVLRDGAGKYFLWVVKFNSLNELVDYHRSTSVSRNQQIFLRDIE

In turn, `CC(=O)N[C@@H](CCC(N)=O)C(=O)NCC(=O)N[C@@H](CCCNC(=N)N)C(=O)N[C@@H](CCCNC(=N)N)C(=O)N[C@@H](CCC(=O)O)C(=O)N[C@@H](CCC(=O)O)C(=O)N[C@@H](Cc1ccc(OP(=O)(O)O)cc1)C(=O)N[C@@H](CC(=O)O)C(=O)N[C@H](C(=O)N[C@@H](CC(C)C)C(=O)N[C@@H](CC(=O)O)C(=O)N[C@@H](CCCCN)C(=O)NCC(N)=O)C(C)C` [CD3Z pY83] (Ac-QGRREE[pY]DVLDKG-NH2) had a Kd in assay [1] of 2950 nM.
For `CC[C@H](C)[C@H](NC(=O)[C@H](CCC(=O)O)NC(=O)[C@H](CC(=O)O)NC(=O)[C@H](Cc1ccc(OP(=O)(O)O)cc1)NC(=O)[C@@H](NC(=O)[C@H](CCCNC(=N)N)NC(=O)[C@H](CO)NC(=O)[C@H](CCC(=O)O)NC(=O)[C@H](C)NC(=O)[C@H](CCC(N)=O)NC(C)=O)[C@@H](C)CC)C(=O)N[C@@H](CC(C)C)C(=O)N[C@@H](CCC(N)=O)C(=O)NCC(N)=O` [CD84 pY296] (Ac-QAESRI[pY]DEILQG-NH2), the Kd turned out to be 91 nM in assay [1] and 28.1 nM in assay [2].
With `CC[C@H](C)[C@H](NC(=O)[C@H](CC(N)=O)NC(=O)[C@H](CCCCN)NC(=O)[C@H](Cc1ccc(OP(=O)(O)O)cc1)NC(=O)[C@H](CC(=O)O)NC(=O)[C@@H](NC(=O)CNC(=O)CNC(=O)[C@H](CCC(=O)O)NC(=O)[C@H](CCC(N)=O)NC(C)=O)C(C)C)C(=O)N[C@@H](Cc1c[nH]cn1)C(=O)N[C@@H](CC(C)C)C(=O)NCC(N)=O` [CSF1R pY699] (Ac-QEGGVD[pY]KNIHLG-NH2), in assay [1], the dissociation constant (Kd) worked out at 22800 nM.
Regarding `CC[C@H](C)[C@H](NC(=O)[C@H](CC(=O)O)NC(=O)[C@H](CCC(N)=O)NC(C)=O)C(=O)N[C@@H](CC(N)=O)C(=O)N[C@@H](CO)C(=O)N[C@@H](CC(C)C)C(=O)N[C@@H](Cc1ccc(OP(=O)(O)O)cc1)C(=O)N[C@@H](CC(=O)O)C(=O)N[C@H](C(=O)N[C@@H](CO)C(=O)N[C@@H](CCCNC(=N)N)C(=O)N[C@@H](CCSC)C(=O)NCC(N)=O)C(C)C` [PLCG2 pY 753] (Ac-QDINSL[pY]DVSRMG-NH2), the Kd in assay [1] worked out at 11700 nM; in assay [2] it was 12300 nM.
Take `CC(=O)N[C@@H](CCC(N)=O)C(=O)N[C@@H](Cc1c[nH]cn1)C(=O)N[C@@H](CCCCN)C(=O)N[C@@H](CCC(=O)O)C(=O)N[C@@H](CC(=O)O)C(=O)N[C@H](C(=O)N[C@@H](Cc1ccc(OP(=O)(O)O)cc1)C(=O)N[C@@H](CCC(=O)O)C(=O)N[C@@H](CC(N)=O)C(=O)N[C@@H](CC(C)C)C(=O)N[C@@H](Cc1c[nH]cn1)C(=O)N[C@H](C(=O)NCC(N)=O)[C@@H](C)O)C(C)C` [PTPN6 pY564] (Ac-QHKEDV[pY]ENLHTG-NH2): the Kd is 943 nM in assay [1] and 909 nM in assay [2].
On the same counts, the results for `CC[C@H](C)[C@H](NC(=O)[C@H](CCC(=O)O)NC(=O)[C@H](CO)NC(=O)[C@H](Cc1ccc(OP(=O)(O)O)cc1)NC(=O)[C@H](CCC(=O)O)NC(=O)[C@@H](NC(=O)[C@@H](NC(=O)[C@H](CO)NC(=O)[C@@H]1CCCN1C(=O)[C@H](CCC(N)=O)NC(C)=O)[C@@H](C)O)[C@@H](C)O)C(=O)N[C@@H](CCCCN)C(=O)N[C@H](C(=O)NCC(N)=O)[C@@H](C)O` [SIGLEC5 pY544] (Ac-QPSTTE[pY]SEIKTG-NH2) are 362 nM and 282 nM.
As to `CC(=O)N[C@@H](CCC(N)=O)C(=O)N[C@@H](CC(=O)O)C(=O)N[C@@H](CC(=O)O)C(=O)N[C@@H](CCC(N)=O)C(=O)N[C@@H](CCC(=O)O)C(=O)N[C@H](C(=O)N[C@@H](Cc1ccc(OP(=O)(O)O)cc1)C(=O)N[C@@H](CC(=O)O)C(=O)N[C@@H](CC(=O)O)C(=O)N[C@H](C(=O)N[C@@H](C)C(=O)N[C@@H](CCC(=O)O)C(=O)NCC(N)=O)C(C)C)C(C)C` [SLAP-130 pY595] (Ac-QDDQEV[pY]DDVAEG-NH2), the Kd amounted to 240 nM in assay [1] and 191 nM in assay [2].
Take `CC[C@H](C)[C@H](NC(=O)[C@H](CC(=O)O)NC(=O)[C@H](CC(=O)O)NC(=O)[C@H](Cc1ccc(OP(=O)(O)O)cc1)NC(=O)[C@@H](NC(=O)[C@H](CCC(=O)O)NC(=O)CNC(=O)[C@H](CC(=O)O)NC(=O)[C@H](CC(N)=O)NC(=O)[C@H](CCC(N)=O)NC(C)=O)[C@@H](C)CC)C(=O)N[C@@H](C)C(=O)N[C@@H](CC(=O)O)C(=O)NCC(N)=O` [SLAP-130 pY771] (Ac-QNDGEI[pY]DDIADG-NH2): the Kd came to 96.8 nM in assay [1] and 94 nM in assay [2].
As for `CC[C@H](C)[C@H](NC(=O)[C@H](CC(N)=O)NC(=O)[C@H](Cc1c[nH]cn1)NC(=O)[C@H](CCC(N)=O)NC(C)=O)C(=O)N[C@@H](Cc1c[nH]cn1)C(=O)N[C@@H](CO)C(=O)N[C@@H](Cc1ccc(OP(=O)(O)O)cc1)C(=O)N[C@H](C(=O)N[C@@H](CC(N)=O)C(=O)N[C@H](C(=O)N1CCC[C@H]1C(=O)N1CCC[C@H]1C(=O)NCC(N)=O)[C@@H](C)CC)[C@@H](C)CC` [Syn-G2-2] (Ac-QHNIHS[pY]INIPPG-NH2), the Kd in assay [3] is 3.99 nM.
The same measure, in the same setting: the result for `CC[C@H](C)[C@H](NC(=O)[C@H](CC(N)=O)NC(=O)[C@H](Cc1c[nH]cn1)NC(=O)[C@H](Cc1ccc(OP(=O)(O)O)cc1)NC(=O)[C@H](CCCNC(=N)N)NC(=O)[C@H](CCC(N)=O)NC(=O)[C@H](Cc1c[nH]cn1)NC(=O)CNC(=O)[C@H](CC(C)C)NC(=O)[C@H](CCC(N)=O)NC(C)=O)C(=O)N[C@H](C(=O)N1CCC[C@H]1C(=O)NCC(N)=O)[C@@H](C)O` [Syn-G2-5] (Ac-QLGHQR[pY]HNITPG-NH2) reads 487 nM.
Take `CC(=O)N[C@@H](CCC(N)=O)C(=O)N[C@@H](CCC(=O)O)C(=O)N[C@@H](Cc1c[nH]c2ccccc12)C(=O)N[C@@H](CCCNC(=N)N)C(=O)N[C@@H](CO)C(=O)N[C@@H](CCC(N)=O)C(=O)N[C@@H](Cc1ccc(OP(=O)(O)O)cc1)C(=O)N[C@@H](CCC(=O)O)C(=O)N[C@@H](C)C(=O)N[C@@H](CC(C)C)C(=O)N[C@@H](CCCCN)C(=O)N[C@@H](CCC(=O)O)C(=O)NCC(N)=O` [TRAF3IP3 pY322] (Ac-QEWRSQ[pY]EALKEG-NH2): the Kd in assay [1] amounted to 3940 nM; in assay [2] it was 6480 nM.
